US20240148740A1, “COMBINATION OF AN AHR INHIBITOR WITH A PDX INHIBITOR OR DOXORUBICINE” (Ikena Oncology, Inc., priority 2020, published 2024)
Where two headings read alike, the source gives them in different places. Blank lines part the entries; values can stand above or below the compound they belong to.

Legend:
[1] = Phase 1 study, interim cohort pharmacokinetics; type: in vivo, human; settings: for dose proportionality of PK: Cycle 2 Day 1 (C2D1); for exposure with increase in dose: interim cohort PK
Experimental: Serial blood samples are obtained to characterize the plasma PK of Compound A and its major active metabolites. The initial sampling strategy is based on the predicted human PK of this compound. If in the course of evaluating the PK, it is determined that an alternative sampling scheme would be more informative, then that alternative sampling scheme can be implemented if the total amount of blood and blood draws obtained for PK is not increased. Moreover, the total number of samples can be decreased at any time if the initial sampling scheme is considered unnecessarily intensive.

[2] = cited from earlier work
NSCLC [3] = settings: cited from earlier work
[4] = test system: CMV specific memory T cells; settings: versus isotype-matched control, dose-dependent; cited from earlier work
advanced NSCLC = settings: cited from earlier work
PD-1 pathway = settings: cited from earlier work
NSCLC [5] = settings: cited from earlier work; remark: listed apart in the source
[6] = test system: PD-L1-positive, advanced NSCLC; settings: cited from earlier work
advanced melanoma = settings: median follow-up 9 months after completion of 2 years of pembrolizumab; cited from earlier work

ratio of Compound B to Compound A ([1]; C2D1, 400 mg and 800 mg dose): 1.3-1.4 x parent | Compound B metabolite ratio ([1]; C2D1, cohorts above 200 mg): increased | dose proportionality of PK [1]: greater than dose proportional | accumulation with repeat dosing ([1]; above 200 mg): Accumulation | exposure with increase in dose [1]: Increased exposure with increase in dose | AUC relative to Compound A ([1]; repeated dosing, 2/3 subjects at 400 and 800 mg): greater than Compound A
Compound: CC(C)(O)c1cnn2c(N[C@@H]3CCc4[nH]c5ccccc5c4C3)nc(-c3cncc(F)c3)nc12 [Compound B]

Compound: ipilimumab: drug combined with nivolumab; comparator in Keynote-006
effect on the clearance of ipilimumab ([2]; nivolumab in combination with ipilimumab): no effect

Compound: nivolumab: human monoclonal antibody (IgG4 kappa immunoglobulin) that blocks the interaction between PD-1 and its ligands
2 year OS rate (NSCLC [3]; non-squamous NSCLC): 29% | 2 year OS rate (NSCLC [3]; squamous NSCLC): 23% | 3 year OS rates (NSCLC [3]; squamous and non-squamous NSCLC): 16%-18% | IFN-γ secretion from CMV specific memory T cells [4]: augmented IFN-γ secretion | systemic accumulation ([2]; 3 mg/kg Q2W): approximately 3 fold | time to steady-state concentrations ([2]; 3 mg/kg Q2W): ≤ 12 weeks | exposure versus dose ([2]; 0.1 to 10 mg/kg every 2 weeks): increased dose proportionally | geometric mean clearance (CL) ([2]; 0.1 to 10 mg/kg, single or multiple doses): 9.5 mL/h | geometric mean elimination half-life (t½) ([2]; 0.1 to 10 mg/kg): 26.7 days | geometric mean volume of distribution at steady state (Vss) ([2]; 0.1 to 10 mg/kg): 8.0 L | increase of CL of nivolumab ([2]; in combination with ipilimumab): 24% | OS HR, continued treatment (advanced NSCLC; median follow-up 14.9 months post-randomization): 0.63 | PFS HR, continue versus stop treatment (advanced NSCLC; post-randomization after 1 year of nivolumab): 0.42 | median PFS (post-randomization) (advanced NSCLC; randomized to continue nivolumab): not reached | median PFS (post-randomization) (advanced NSCLC; randomized to stop treatment): 10.3 months | proliferation and IFN-γ release in the MLR (PD-1 pathway): reproducible enhancement | subjects alive >5 years and progression-free without subsequent therapy (NSCLC [5]; among 16 NSCLC subjects who discontinued after 2 years of treatment): 12 subjects | OS rate (NSCLC [5]; at 2 years): 25% | OS rate (NSCLC [5]; at 3 years): 18%

Compound: pembrolizumab
patients with confirmed progression after stopping at 2 years ([6]; 47 patients who completed 2 years): 4% | OS hazard ratio (HR) compared to docetaxel ([6]; pembrolizumab 2 mg/kg every 3 weeks): 0.72 | OS hazard ratio (HR) compared to docetaxel ([6]; pembrolizumab 10 mg/kg every 3 weeks): 0.60 | estimated risk of progression or death (advanced melanoma): 9%

ratio of Compound C to Compound A (AUC) ([1]; 400 mg and 800 mg dose): 15-20 % of parent | dose proportionality of PK [1]: greater than dose proportional | exposure with increase in dose [1]: Increased exposure with increase in dose
Compound: C=C(C)c1cnn2c(N[C@@H]3CCc4[nH]c5ccccc5c4C3)nc(-c3cncc(F)c3)nc12 [Compound C]
